The values that follow are results of earlier work, collected in paper PMC12845312, “Hydrazonylthiazole Derivatives as Dual EGFR and ALR2 Inhibitors: Design, Synthesis, and Comprehensive In Vitro and In Silico Evaluation for Potential Anticancer Activity” (Pharmaceuticals, 2025).

The structures appear in SMILES notation. pIC50: −log10 of the molar value.

The term pIC50 denotes the negative decadic logarithm of the IC50, by convention in mol/L. For orientation: IC50 means the point on the concentration scale where inhibition reaches its midpoint.

One series relates to MCF-7 cells. Conditions: read-out: IC50 against MCF-7 cells; cited from earlier work.
Another series deals with A549 cells. Set-up: method as in doi:10.1016/j.molstruc.2024.139067. Conditions: read-out: IC50 against A549 cells; cited from earlier work.
The target in the next series is T1, EGFR (Homo sapiens, UniProt P00533).
T1 construct: purchased Promega V3831
Conditions: read-out: EGFR inhibition IC50 (converted); cited from earlier work.

T1 sequence (P00533 25-1210): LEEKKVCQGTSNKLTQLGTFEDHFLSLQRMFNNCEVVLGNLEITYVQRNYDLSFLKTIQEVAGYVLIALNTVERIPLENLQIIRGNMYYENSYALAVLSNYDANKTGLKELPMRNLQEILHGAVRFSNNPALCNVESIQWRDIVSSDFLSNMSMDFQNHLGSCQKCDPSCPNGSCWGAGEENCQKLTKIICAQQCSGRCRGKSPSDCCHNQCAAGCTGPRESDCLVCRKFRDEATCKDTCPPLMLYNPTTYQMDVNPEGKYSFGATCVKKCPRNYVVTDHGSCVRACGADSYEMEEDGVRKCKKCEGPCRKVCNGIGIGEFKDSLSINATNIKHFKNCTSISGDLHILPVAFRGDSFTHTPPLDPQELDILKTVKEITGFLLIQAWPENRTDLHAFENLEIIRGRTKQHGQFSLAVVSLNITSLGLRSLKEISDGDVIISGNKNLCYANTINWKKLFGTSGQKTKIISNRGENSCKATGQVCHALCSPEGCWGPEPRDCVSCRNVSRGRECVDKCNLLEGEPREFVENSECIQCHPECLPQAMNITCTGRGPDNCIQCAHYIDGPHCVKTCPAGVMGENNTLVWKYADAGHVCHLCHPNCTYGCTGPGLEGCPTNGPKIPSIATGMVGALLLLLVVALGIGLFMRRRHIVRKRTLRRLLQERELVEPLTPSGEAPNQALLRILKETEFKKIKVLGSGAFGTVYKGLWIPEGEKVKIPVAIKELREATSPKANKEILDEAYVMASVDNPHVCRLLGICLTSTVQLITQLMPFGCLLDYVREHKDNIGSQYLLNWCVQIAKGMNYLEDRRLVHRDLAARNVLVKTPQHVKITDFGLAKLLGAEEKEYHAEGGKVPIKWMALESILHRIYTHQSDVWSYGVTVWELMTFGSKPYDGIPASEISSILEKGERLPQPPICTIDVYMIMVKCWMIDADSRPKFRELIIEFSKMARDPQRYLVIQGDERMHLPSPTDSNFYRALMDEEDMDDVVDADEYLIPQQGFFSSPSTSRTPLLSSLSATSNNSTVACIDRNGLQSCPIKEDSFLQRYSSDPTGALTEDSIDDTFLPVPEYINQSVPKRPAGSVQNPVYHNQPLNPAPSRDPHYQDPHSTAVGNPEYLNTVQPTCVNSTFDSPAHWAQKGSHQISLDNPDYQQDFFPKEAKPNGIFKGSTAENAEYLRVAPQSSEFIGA

For the molecule `O=[N+]([O-])c1ccc(-c2csc(N/N=C/c3c4ccccc4cc4ccccc34)n2)cc1` [Compound A5], the negative logarithm of the IC50 (pIC50) is 5.15 with MCF-7 cells and 5.07 with A549 cells. The IC50 on EGFR is 0.88 µM.
